Assay results: ChEMBL document CHEMBL5338706, “Discovery of a potent and selective proteolysis targeting chimera (PROTAC) degrader of NSD3 histone methyltransferase” (Eur J Med Chem, 2022)
Activity calls are given as the source filed them. No cut-off for these calls is given here.

Columns and labels:
NCI-H1703 [1] = test: Downregulation of c-Myc level in human NCI-H1703 cells at 3 to […] by Western blot analysis; type: functional, cell-based; conditions: dose 3-7.5 µM
[2] = Downregulation of Cyclin D1 level in human NCI-H520 cells at 5 uM by measuring fold change by Western blot analysis relative to control; type: functional
NCI-H520 [3] = test: Induction of apoptosis in human NCI-H520 cells assessed as decrease in NSD3 protein expression at 10 uM by measuring fold change by Western blot analysis relative to control; type: functional
[4] = target: T1, Histone-lysine N-methyltransferase NSD3 (Homo sapiens) (UniProt Q9BZ95); test: Induction of NSD3 degradation in human NCI-H1703 cells at […] incubated for 48 hrs in presence of MG132 by Western blot analysis; type: cell-based; conditions: dose 7.5 µM
T1 sequence (whole entry): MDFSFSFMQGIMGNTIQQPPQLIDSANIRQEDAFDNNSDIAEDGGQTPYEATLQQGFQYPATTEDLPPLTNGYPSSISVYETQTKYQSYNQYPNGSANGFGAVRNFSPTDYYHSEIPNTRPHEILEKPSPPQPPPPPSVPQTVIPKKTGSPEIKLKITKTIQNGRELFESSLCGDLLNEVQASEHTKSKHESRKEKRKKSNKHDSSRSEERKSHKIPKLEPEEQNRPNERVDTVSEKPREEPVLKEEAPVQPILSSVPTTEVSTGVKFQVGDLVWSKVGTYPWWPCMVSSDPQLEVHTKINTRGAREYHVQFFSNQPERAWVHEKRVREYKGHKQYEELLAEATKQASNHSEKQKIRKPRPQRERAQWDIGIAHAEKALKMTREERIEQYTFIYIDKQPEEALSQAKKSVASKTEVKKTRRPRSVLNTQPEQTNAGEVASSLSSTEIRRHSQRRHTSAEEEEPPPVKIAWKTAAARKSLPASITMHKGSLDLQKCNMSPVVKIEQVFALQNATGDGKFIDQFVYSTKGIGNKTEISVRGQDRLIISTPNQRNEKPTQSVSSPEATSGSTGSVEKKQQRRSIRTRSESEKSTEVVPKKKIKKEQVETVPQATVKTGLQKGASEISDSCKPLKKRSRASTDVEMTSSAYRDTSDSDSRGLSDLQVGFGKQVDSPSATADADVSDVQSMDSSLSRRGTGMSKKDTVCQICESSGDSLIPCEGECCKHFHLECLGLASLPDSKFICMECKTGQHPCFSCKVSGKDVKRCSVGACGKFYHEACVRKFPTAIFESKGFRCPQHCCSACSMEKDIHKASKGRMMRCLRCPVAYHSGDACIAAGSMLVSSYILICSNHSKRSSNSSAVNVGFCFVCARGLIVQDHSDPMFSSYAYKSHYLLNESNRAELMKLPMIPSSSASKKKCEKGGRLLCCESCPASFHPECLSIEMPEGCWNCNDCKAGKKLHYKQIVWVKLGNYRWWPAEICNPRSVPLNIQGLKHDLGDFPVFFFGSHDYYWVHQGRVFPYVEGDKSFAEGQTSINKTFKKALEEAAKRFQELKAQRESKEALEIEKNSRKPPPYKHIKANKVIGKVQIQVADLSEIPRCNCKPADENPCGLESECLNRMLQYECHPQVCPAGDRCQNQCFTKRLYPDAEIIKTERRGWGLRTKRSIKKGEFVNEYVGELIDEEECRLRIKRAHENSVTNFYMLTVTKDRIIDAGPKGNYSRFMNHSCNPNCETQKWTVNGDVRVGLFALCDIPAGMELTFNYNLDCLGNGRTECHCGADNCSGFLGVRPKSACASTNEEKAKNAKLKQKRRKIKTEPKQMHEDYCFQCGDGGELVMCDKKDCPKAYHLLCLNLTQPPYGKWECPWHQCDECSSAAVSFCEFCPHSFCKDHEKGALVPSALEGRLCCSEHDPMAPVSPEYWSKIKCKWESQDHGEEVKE

[5] = Downregulation of Cyclin D1 level in human NCI-H1703 cells at 5 uM by measuring fold change by Western blot analysis relative to control; type: functional
NCI-H520 [6] = test: Downregulation of CDC25A level in human NCI-H520 cells at 3 to […] by Western blot analysis; type: functional, cell-based; conditions: dose 3-7.5 µM
[7] = Downregulation of Cyclin D1 level in human NCI-H520 cells at […] by measuring fold change by Western blot analysis relative to control; type: functional; conditions: dose 7.5 µM
NCI-H1703 [8] = test: Downregulation of CDC25A level in human NCI-H1703 cells at 3 to […] by Western blot analysis; type: functional, cell-based; conditions: dose 3-7.5 µM
NCI-H1703 [9] = test: Induction of apoptosis in human NCI-H1703 cells assessed as late apoptotic cells at 5 uM measured after 72 hrs by PI/Annexin-V staining based flow cytometry analysis (reference value: 3.00% ); type: functional
[10] = target: T1, Histone-lysine N-methyltransferase NSD3 (Homo sapiens); test: Induction of NSD3 degradation in human NCI-H1703 cells at 5 uM incubated for 72 hrs by Western blot analysis; type: cell-based
[11] = target: T1, Histone-lysine N-methyltransferase NSD3 (Homo sapiens); test: Induction of NSD3 degradation in human NCI-H1703 cells assessed as reduction in H3K36me3 methylation incubated for 72 hrs by Western blot analysis; type: cell-based; conditions: dose 3-7.5 µM
[12] = target: T1, Histone-lysine N-methyltransferase NSD3 (Homo sapiens); test: Induction of NSD3 degradation in human NCI-H1703 cells at 5 uM measured after 48 hrs by Western blot analysis relative to control; type: cell-based
NCI-H1703 [13] = test: Induction of apoptosis in human NCI-H1703 cells assessed as decrease in Bcl-XL protein expression at 5 to 10 uM by Western blot analysis; type: functional, cell-based; conditions: dose 5-10 µM
NCI-H1703 [14] = test: Induction of apoptosis in human NCI-H1703 cells assessed as late apoptotic cells at 3 uM measured after 72 hrs by PI/Annexin-V staining based flow cytometry analysis (reference value: 3.00% ); type: functional
[15] = target: T1, Histone-lysine N-methyltransferase NSD3 (Homo sapiens); test: Induction of NSD3 degradation in human NCI-H1703 cells measured upto 72 hrs by Western blot analysis; type: cell-based; conditions: dose 0.001-10 µM
NCI-H1703 [16] = test: Induction of apoptosis in human NCI-H1703 cells assessed as viable cells at 5 uM measured after 72 hrs by PI/Annexin-V staining based flow cytometry analysis (reference value: 92.7% ); type: functional; conditions: read-out: Activity
A549 = test: Antitumor activity against human A549 cells xenografted mouse model assessed as reduction in NSD3 expression level at 100 mg/kg, ip measured within 36 hrs by Western blot analysis; type: functional, organism-based
[17] = Downregulation of CDC25A level in human NCI-H520 cells at 5 uM by measuring fold change by Western blot analysis relative to control; type: functional
[18] = Downregulation of NSD3 level in human NCI-H520 cells at 5 uM by measuring fold change by Western blot analysis relative to control; type: functional
NCI-H1703 [19] = test: Induction of apoptosis in human NCI-H1703 cells assessed as necrotic cells at 5 uM measured after 72 hrs by PI/Annexin-V staining based flow cytometry analysis (reference value: 2.80% ); type: functional
[20] = target: T1, Histone-lysine N-methyltransferase NSD3 (Homo sapiens); test: Induction of NSD3 degradation in human NCI-H1703 cells at 0.001 to 10 uM by Western blot analysis; type: cell-based; conditions: dose 0.001-10 µM, time <= 72.0 hrs, TDE = time-dependent effect

Q: Which results are given for `Cc1cc(CNCCCCCCCCCCC(=O)N[C@H](C(=O)N2C[C@H](O)C[C@H]2C(=O)N[C@@H](C)c2ccc(-c3scnc3C)cc2)C(C)(C)C)cc(C)c1-c1ncn(C)c1-c1ccnc2cc(F)ccc12`?
A: Activity (NCI-H1703 [1]): Active; fold change (FC) [2]: 0.8; fold change (FC) (NCI-H520 [3]): 0.49; Activity [4]: inactive; fold change (FC) [5]: 0.69; Activity (NCI-H520 [6]): Active; fold change (FC) [7]: 0.62; Activity (NCI-H1703 [8]): Active; Activity (NCI-H1703 [9]): 6.08%; NSD3 degradation [10]: 58.9%; Activity [11]: Dose-Dependent Effect; Activity [12]: 60%; Activity (NCI-H1703 [13]): Active; Activity (NCI-H1703 [14]): 3%; Activity [15]: Dose-Dependent Effect; viability at 5 µM (NCI-H1703 [16]): 81.2%; Activity (A549): Active; fold change (FC) [17]: 0.93; fold change (FC) [18]: 0.7; Activity (NCI-H1703 [19]): 7.21%; Activity [20]: Tde
